One series relates to Trichophyton benhamiae. Nature of the series: The compound was evaluated for activity against Trichophyton mentagrophytes. The format is functional, Arthroderma benhamiae.
In the next series the test system is Aspergillus oryzae. Nature of the series: The compound was evaluated for activity against Aspergillus oryzae. In kind it is functional. Also noted: unit not given here.
Another series deals with Aspergillus niger. The series can be described thus: The compound was evaluated for activity against Aspergillus niger. The format is functional.
For another series, the system named is Trichoderma viride. Nature of the series: The compound was evaluated for activity against Trichoderma viride. Further details: unit not given here. In kind it is functional.
For another series, the system named is Albifimbria verrucaria. The series can be described thus: The compound was evaluated for activity against Myrothecium verrucaria. In kind it is functional. Also noted: unit not given here.
The test system of another series is Enterococcus faecalis. Nature of the series: The compound was evaluated for activity against strain Streptococcus faecalis. In kind it is functional. Further details: unit not given here.
In the next series the test system is Streptococcus pyogenes. Nature of the series: The compound was evaluated for activity against strain Streptococcus hemolyticus. In kind it is functional. Further details: unit not given here.
A further series deals with Bacillus subtilis. The series can be described thus: Inhibitory activity against Bacillus subtilis. The format is functional. Further details: unit not given here.
In another series the test system is Staphylococcus aureus. Nature of the series: The compound was evaluated for activity against strain Micrococcus aureus. In kind it is functional. Further details: unit not given here.
The nature of series [1]: -Log C was determined by performing the electroshock minimum test. In kind it is ADME. Also noted: unit not given here.
Series [2] can be described thus: -Log C was determined by performing the foot shock test. The format is ADME. Also noted: unit not given here.
The nature of series [3]: -Log C was determined by performing the incl screen test. In kind it is ADME. Also noted: unit not given here.
Series [4] can be described thus: -Log C was determined by performing the maximum electroshock test. The format is ADME. Also noted: unit not given here.
A short description of series [5]: -Log C was determined by performing the pentylenetetrazole test. The format is ADME. Also noted: unit not given here.

As for `O=[N+]([O-])c1cc(I)c2cccnc2c1O`, the “-Log C” value with Trichophyton benhamiae is 1.89 mM l-1; with Aspergillus oryzae, 0.57; with Aspergillus niger, 0.7 mM l-1; with Trichoderma viride it was 0.89; with Albifimbria verrucaria, 0.6.
The like results for `O=[N+]([O-])c1cc(F)c2cccnc2c1O` were, in that order, 1.72 mM l-1, 0.85, 1.06 mM l-1, 1.06 and 1.02.
As to `Oc1c(Br)cc(Cl)c2cccnc12`, the “-Log C” value in the series with Trichophyton benhamiae is 2.11 mM l-1; in the series with Aspergillus niger it was 1.92 mM l-1.
For `COC1/C=C/OC2(C)Oc3c(C)c(O)c4c(O)c(cc(OCC(=O)N(C)CCC#N)c4c3C2=O)NC(=O)/C(C)=C\C=C\C(C)C(O)C(C)C(O)C(C)C(OC(C)=O)C1C` (stereo unspecified), the “-Log C” value in the series on Enterococcus faecalis is on record as 6.05; in the series with Streptococcus pyogenes it was 6.97; with Bacillus subtilis it was 5.74; in the series on Staphylococcus aureus, 6.97.
Regarding `COC1/C=C/OC2(C)Oc3c(C)c(O)c4c(O)c(cc(OCC(=O)N5C(C)COCC5C)c4c3C2=O)NC(=O)/C(C)=C\C=C\C(C)C(O)C(C)C(O)C(C)C(OC(C)=O)C1C` (stereo unspecified), the “-Log C” value in the series on Enterococcus faecalis is given as 6.98; with Streptococcus pyogenes, 7.76; with Bacillus subtilis, 6.15; in the series with Staphylococcus aureus, 7.93.
The like results for `COC1/C=C/OC2(C)Oc3c(C)c(O)c4c(O)c(cc(OCC(=O)N(C)C5CCCC5)c4c3C2=O)NC(=O)/C(C)=C\C=C\C(C)C(O)C(C)C(O)C(C)C(OC(C)=O)C1C` (stereo unspecified) were, in that order, 7.22, 8.22, 6.36 and 8.14.
In the case of `O=[N+]([O-])c1cc(Cl)c(O)c2ncccc12`, the entries for the “-Log C” value in the series with Trichophyton benhamiae and in the series on Aspergillus niger were 2.35 mM l-1 and 0.89 mM l-1, respectively.
The like results for `Oc1c(F)cc(F)c2cccnc12` were, in that order, 1.66 mM l-1 and 1.36 mM l-1.
On to `COC1/C=C/OC2(C)Oc3c(C)c(O)c4c(O)c(cc(OCC(=O)N5CCOCC5C)c4c3C2=O)NC(=O)/C(C)=C\C=C\C(C)C(O)C(C)C(O)C(C)C(OC(C)=O)C1C` (stereo unspecified), for which the “-Log C” value with Enterococcus faecalis is on record as 6.22; in the series with Streptococcus pyogenes, 8.36; with Bacillus subtilis, 6.67; in the series on Staphylococcus aureus, 7.92.
For the compound `O=[N+]([O-])c1cc(Br)c(O)c2ncccc12`, the “-Log C” value in the series on Trichophyton benhamiae worked out at 2.43 mM l-1; in the series with Aspergillus oryzae, 0.66; in the series with Aspergillus niger, 1.01 mM l-1; in the series with Trichoderma viride it was 1.32; in the series with Albifimbria verrucaria, 1.72.
On to `COC1/C=C/OC2(C)Oc3c(C)c(O)c4c(O)c(cc(OCC(=O)N(Cc5ccccc5)Cc5ccccc5)c4c3C2=O)NC(=O)/C(C)=C\C=C\C(C)C(O)C(C)C(O)C(C)C(OC(C)=O)C1C` (stereo unspecified), for which the “-Log C” value stood at 7.49 in the series on Enterococcus faecalis, 7.89 in the series with Streptococcus pyogenes, 6.89 in the series on Bacillus subtilis and 8.49 in the series with Staphylococcus aureus.
On to `Oc1c(Cl)ccc2cccnc12`, for which the “-Log C” value is 2.25 mM l-1 with Trichophyton benhamiae and 1.77 mM l-1 in the series with Aspergillus niger.
Regarding `Oc1c(Br)ccc2cccnc12`, the “-Log C” value came out at 2.35 mM l-1 in the series on Trichophyton benhamiae; 1.89 with Aspergillus oryzae; 1.89 mM l-1 with Aspergillus niger; 2.35 in the series with Trichoderma viride; 2.35 with Albifimbria verrucaria.
With `Oc1c(Cl)cc(F)c2cccnc12`, the “-Log C” value with Trichophyton benhamiae is recorded as 2.3 mM l-1; with Aspergillus oryzae, 1.7; in the series with Aspergillus niger it was 1.82 mM l-1; in the series with Trichoderma viride, 2.29; with Albifimbria verrucaria, 2.29.
As for `Oc1c(F)cc(I)c2cccnc12`, the “-Log C” value is 2.46 mM l-1 in the series on Trichophyton benhamiae; 1.46 with Aspergillus oryzae; 2 mM l-1 in the series on Aspergillus niger; 2 in the series with Trichoderma viride; 2.46 in the series on Albifimbria verrucaria.
`Nc1cc(Br)c2cccnc2c1O`: the “-Log C” value in the series with Trichophyton benhamiae worked out at 1.6 mM l-1; in the series with Aspergillus oryzae it was 0.68; with Aspergillus niger, 0.57 mM l-1; in the series with Trichoderma viride, 0.92; in the series on Albifimbria verrucaria it was 0.96.
As for `Oc1c(F)cc(Cl)c2cccnc12`, the “-Log C” value with Trichophyton benhamiae turned out to be 2.3 mM l-1; in the series on Aspergillus oryzae, 1.7; in the series with Aspergillus niger, 2 mM l-1; in the series on Trichoderma viride, 2.29; in the series with Albifimbria verrucaria it was 2.29.
Regarding `COC1/C=C/OC2(C)Oc3c(C)c(O)c4c(O)c(cc(OCC(=O)N5CCCCC5C)c4c3C2=O)NC(=O)/C(C)=C\C=C\C(C)C(O)C(C)C(O)C(C)C(OC(C)=O)C1C` (stereo unspecified), the “-Log C” value in the series with Enterococcus faecalis came to 7.45; in the series on Streptococcus pyogenes, 7.92; in the series with Bacillus subtilis it was 6.67; in the series with Staphylococcus aureus, 8.22.
Regarding `O=[N+]([O-])c1cc(Br)c2cccnc2c1O`, the “-Log C” value with Trichophyton benhamiae stood at 2.43 mM l-1; in the series with Aspergillus oryzae, 0.66; with Aspergillus niger it was 0.62 mM l-1; in the series on Trichoderma viride, 1.13; in the series on Albifimbria verrucaria, 1.13.
For the compound `Oc1c(Cl)cc(Br)c2cccnc12`, the “-Log C” value in the series on Trichophyton benhamiae amounted to 2.41 mM l-1; in the series on Aspergillus oryzae, 1.82; in the series on Aspergillus niger, 2.11 mM l-1; in the series with Trichoderma viride, 2.41; in the series with Albifimbria verrucaria it was 2.41.
Consider `Oc1c(F)cc(Br)c2cccnc12`, for which the “-Log C” value amounted to 2.39 mM l-1 with Trichophyton benhamiae; 1.62 in the series with Aspergillus oryzae; 1.92 mM l-1 in the series on Aspergillus niger; 1.92 in the series with Trichoderma viride; 2.39 in the series with Albifimbria verrucaria.
The like results for `Nc1cc(I)c2cccnc2c1O` were, in that order, 2.21 mM l-1, 1.03, 1.15 mM l-1, 1.21 and 1.51.
As to `CCN(CCO)C(=O)COc1cc2c(O)c3c(O)c(C)c4c(c13)C(=O)C(C)(O/C=C/C(OC)C(C)C(OC(C)=O)C(C)C(O)C(C)C(O)C(C)/C=C/C=C(/C)C(=O)N2)O4` (stereo unspecified), the “-Log C” value is listed as 6.18 in the series with Enterococcus faecalis, 6.96 with Streptococcus pyogenes, 5.73 in the series on Bacillus subtilis and 7.52 in the series with Staphylococcus aureus.
Regarding `Oc1c(I)cc(F)c2cccnc12`, the “-Log C” value was determined as 2.46 mM l-1 in the series on Trichophyton benhamiae; 2.62 in the series on Aspergillus oryzae; 2 mM l-1 with Aspergillus niger; 2.46 in the series on Trichoderma viride; 1.16 with Albifimbria verrucaria.
For `Oc1c(Br)cc(I)c2cccnc12` the same measures were 2.24 mM l-1, 1.85, 2.07 mM l-1, 2.24 and 2.24.
`COc1ccccc1C1=NCC(=O)Nc2ccc(Cl)cc21`: the “-Log C” value in series [1] was 0.35; in series [2], 0.48; in [3], 0; in [4], 1; in [5] it was 1.6.
In the case of `O=[N+]([O-])c1cc(Cl)c2cccnc2c1O`, the “-Log C” value in the series on Trichophyton benhamiae is listed as 1.89 mM l-1; in the series on Aspergillus niger it was 1.15 mM l-1.
Turning to `O=[N+]([O-])c1ccc2cccnc2c1O`, the “-Log C” value with Trichophyton benhamiae is on record as 1.8 mM l-1; with Aspergillus oryzae, 0.28; in the series on Aspergillus niger it was 0.48 mM l-1; with Trichoderma viride, 1.28; in the series on Albifimbria verrucaria, 1.13.
Regarding `O=[N+]([O-])c1cc(F)c(O)c2ncccc12`, the “-Log C” value with Trichophyton benhamiae is reported as 2.32 mM l-1; in the series with Aspergillus oryzae, 0.68; in the series with Aspergillus niger, 0.44 mM l-1; with Trichoderma viride, 1.32; in the series on Albifimbria verrucaria, 1.21.
Consider `COC1/C=C/OC2(C)Oc3c(C)c(O)c4c(O)c(cc(OCC(=O)N5CCOCC5)c4c3C2=O)NC(=O)/C(C)=C\C=C\C(C)C(O)C(C)C(O)C(C)C(OC(C)=O)C1C` (stereo unspecified), for which the “-Log C” value with Enterococcus faecalis stood at 5.84; in the series on Streptococcus pyogenes, 7.26; with Bacillus subtilis, 5.74; in the series on Staphylococcus aureus, 6.44.
For the compound `COC1/C=C/OC2(C)Oc3c(C)c(O)c4c(O)c(cc(OCC(=O)N5CCCCCC5)c4c3C2=O)NC(=O)/C(C)=C\C=C\C(C)C(O)C(C)C(O)C(C)C(OC(C)=O)C1C` (stereo unspecified), the “-Log C” value was found to be 7.45 in the series with Enterococcus faecalis, 7.92 in the series with Streptococcus pyogenes, 6.45 in the series with Bacillus subtilis and 8.32 in the series with Staphylococcus aureus.
For `Oc1c(I)cc(Br)c2cccnc12`, the “-Log C” value in the series with Trichophyton benhamiae is 2.24 mM l-1; in the series with Aspergillus oryzae it was 1.24; with Aspergillus niger it was 2.07 mM l-1; in the series on Trichoderma viride it was 1.96; with Albifimbria verrucaria, 2.24.
The like results for `Oc1c(Br)cc(F)c2cccnc12` were, in that order, 2.39 mM l-1, 1.67, 1.92 mM l-1, 2.39 and 2.39.
With `Oc1c(I)ccc2cccnc12`, the “-Log C” value came out at 2.43 mM l-1 in the series on Trichophyton benhamiae; 1.48 in the series on Aspergillus oryzae; 2.13 mM l-1 with Aspergillus niger; 2.43 with Trichoderma viride; 2.43 in the series with Albifimbria verrucaria.
`CCCCN(CCCC)C(=O)COc1cc2c(O)c3c(O)c(C)c4c(c13)C(=O)C(C)(O/C=C/C(OC)C(C)C(OC(C)=O)C(C)C(O)C(C)C(O)C(C)/C=C/C=C(/C)C(=O)N2)O4` (stereo unspecified): the “-Log C” value in the series on Enterococcus faecalis is reported as 7.46; in the series on Streptococcus pyogenes it was 7.86; in the series on Bacillus subtilis, 7.16; in the series with Staphylococcus aureus it was 8.46.
In the case of `C#CCN(CCC)C(=O)COc1cc2c(O)c3c(O)c(C)c4c(c13)C(=O)C(C)(O/C=C/C(OC)C(C)C(OC(C)=O)C(C)C(O)C(C)C(O)C(C)/C=C/C=C(/C)C(=O)N2)O4` (stereo unspecified), the “-Log C” value was determined as 7.14 in the series on Enterococcus faecalis, 8.62 with Streptococcus pyogenes, 6.97 with Bacillus subtilis and 8.44 in the series on Staphylococcus aureus.
As to `Oc1c(I)cc(Cl)c2cccnc12` [CLIOQUINOL], the “-Log C” value in the series on Trichophyton benhamiae and in the series on Aspergillus niger was 2.01 mM l-1 each time.

For the origin of these results see ChEMBL document CHEMBL1121427, “Decomposition of pharmacological activity indices into mutually independent components using principal component analysis” (J Med Chem, 1980).
